The source of these data is patent US10479780B2, “Aminopyrazole derivatives” (Chugai Seiyaku Kabushiki Kaisha, priority 2015, dated 2019).

Read-outs that look alike come from different tables or passages of the source.

Type in all cases: biochemical
One test concerns the target T1, human Lck enzyme (Homo sapiens, UniProt P06239).
T1 construct: purchased Carna Biosciences, Inc. 08-170
The test is described as follows: Lck enzyme inhibitory activity (time-resolved fluorometry, biotinylated peptide phosphorylation). Particulars: read-out: LCK_IC50. In a few lines: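 Readout pairs a europium cryptate-labelled anti-phosphotyrosine antibody with XL665-streptavidin, measured by time-resolved fluorescence. IC50 derived from percent inhibition against untreated controls.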

For a further test, the target named is T2, human Src enzyme (Homo sapiens, UniProt P12931).
T2 construct: purchased Carna Biosciences, Inc. 08-173
As to the kind of experiment: Src enzyme inhibitory activity (time-resolved fluorometry, biotinylated peptide phosphorylation). Particulars: read-out: SRC_IC50. In a few lines:
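Compounds were tested for blocking tyrosine phosphorylation of a biotinylated peptide substrate by recombinant human Src. Phosphorylated product was quantified by time-resolved fluorometry using europium cryptate and XL665 conjugates, and IC50 was calculated against the compound-free control.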

A further test has as its target T3, human Yes1 enzyme (Homo sapiens, UniProt P07947).
T3 construct: made in house
As to the kind of experiment: Yes1 enzyme inhibitory activity (time-resolved fluorometry, biotinylated peptide phosphorylation). Particulars: read-out: YES_IC50. In a few lines: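 Inhibition was expressed against a compound-free control to give IC50, using TR-FRET read-out (Eu-cryptate anti-pTyr antibody, streptavidin-XL665).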

Setting [1] is: biotinylated peptide phosphorylation.

T3 sequence (P07947 whole entry): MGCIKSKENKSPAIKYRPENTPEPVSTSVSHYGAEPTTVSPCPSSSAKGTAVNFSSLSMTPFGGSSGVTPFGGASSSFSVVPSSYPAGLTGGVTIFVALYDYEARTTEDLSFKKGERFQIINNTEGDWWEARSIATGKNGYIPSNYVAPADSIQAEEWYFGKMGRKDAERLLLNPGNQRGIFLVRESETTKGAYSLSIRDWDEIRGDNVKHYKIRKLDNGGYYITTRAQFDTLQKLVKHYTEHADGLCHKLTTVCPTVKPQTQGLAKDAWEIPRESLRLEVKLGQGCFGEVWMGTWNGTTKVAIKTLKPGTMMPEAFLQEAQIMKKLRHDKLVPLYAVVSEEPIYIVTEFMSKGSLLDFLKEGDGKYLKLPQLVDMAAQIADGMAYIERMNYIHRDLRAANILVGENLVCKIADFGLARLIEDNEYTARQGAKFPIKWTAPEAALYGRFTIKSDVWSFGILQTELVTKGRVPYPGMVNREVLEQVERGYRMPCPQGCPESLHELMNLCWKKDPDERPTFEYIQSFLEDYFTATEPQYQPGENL
T1 sequence (P06239 whole entry): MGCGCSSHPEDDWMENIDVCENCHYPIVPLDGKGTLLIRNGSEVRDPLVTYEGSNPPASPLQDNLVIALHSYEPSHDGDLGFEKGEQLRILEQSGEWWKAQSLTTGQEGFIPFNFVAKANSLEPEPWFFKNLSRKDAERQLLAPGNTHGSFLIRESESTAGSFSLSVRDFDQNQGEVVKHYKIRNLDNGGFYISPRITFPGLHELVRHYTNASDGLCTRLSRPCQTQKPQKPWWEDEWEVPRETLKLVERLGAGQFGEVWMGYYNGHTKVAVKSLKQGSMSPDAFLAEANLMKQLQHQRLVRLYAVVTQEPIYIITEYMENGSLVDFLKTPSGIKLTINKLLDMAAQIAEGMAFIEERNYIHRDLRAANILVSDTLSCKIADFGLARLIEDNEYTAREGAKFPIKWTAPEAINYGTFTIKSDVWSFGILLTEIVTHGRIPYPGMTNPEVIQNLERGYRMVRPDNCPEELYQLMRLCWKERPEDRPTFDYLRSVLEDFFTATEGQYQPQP
T2 sequence (P12931 whole entry): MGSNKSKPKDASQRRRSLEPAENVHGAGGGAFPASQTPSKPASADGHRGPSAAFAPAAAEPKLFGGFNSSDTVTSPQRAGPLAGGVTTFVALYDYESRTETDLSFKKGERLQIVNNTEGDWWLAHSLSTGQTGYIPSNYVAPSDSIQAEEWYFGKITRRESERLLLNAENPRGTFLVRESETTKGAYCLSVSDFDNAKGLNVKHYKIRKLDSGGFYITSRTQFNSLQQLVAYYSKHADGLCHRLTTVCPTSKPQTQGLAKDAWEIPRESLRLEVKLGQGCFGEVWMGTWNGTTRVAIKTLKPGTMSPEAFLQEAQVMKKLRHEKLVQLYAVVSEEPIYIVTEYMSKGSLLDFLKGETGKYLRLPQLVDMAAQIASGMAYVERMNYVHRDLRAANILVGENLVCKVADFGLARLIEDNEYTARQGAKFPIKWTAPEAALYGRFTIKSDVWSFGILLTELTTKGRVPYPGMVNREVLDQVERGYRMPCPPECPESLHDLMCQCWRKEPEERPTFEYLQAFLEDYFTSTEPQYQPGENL

Regarding `Cc1cc2cc(C(=O)c3cnn(-c4cnc(Oc5c(F)cccc5F)cc4C)c3N)[nH]c2cc1N1C(=O)NC2(CCN(C3COC3)C2)C1=O` (stereo not drawn) [Example 5-1-362, 3-[2-[5-amino-1-[6-(2,6-difluorophenoxy)-4-methylpyridin-3-yl]pyrazole-4-carbonyl]-5-methyl-1H-indol-6-yl]-7-(oxetan-3-yl)-1,3,7-triazaspiro[4.4]nonane-2,4-dione], the IC50 on human Lck enzyme was found to be 6.5 nM; at human Src enzyme it was 29 nM; at human Yes1 enzyme it was 2 nM.

For the compound `Cc1cc(-n2ncc(C(=O)c3cc4cc(OCC(F)F)c(N5CCC(N6CCOCC6)CC5)cc4[nH]3)c2N)ccc1Oc1ccccc1F` [Example 5-1-172, [5-amino-1-[4-(2-fluorophenoxy)-3-methylphenyl]pyrazol-4-yl]-[5-(2,2-difluoroethoxy)-6-(4-morpholin-4-ylpiperidin-1-yl)-1H-indol-2-yl]methanone], the results for the IC50 on human Lck enzyme, at human Src enzyme and on human Yes1 enzyme were 18 nM, 170 nM and 0.9 nM, respectively.

Turning to `Cc1cc(Oc2c(F)cccc2F)ncc1-n1ncc(C(=O)c2cc3cc(OC4CCN(C5CS(=O)(=O)C5)CC4)c(-c4cncnc4)cc3[nH]2)c1N` [Example 5-1-284, [5-amino-1-[6-(2,6-difluorophenoxy)-4-methylpyridin-3-yl]pyrazol-4-yl]-[5-[1-(1,1-dioxothietan-3-yl)piperidin-4-yl]oxy-5-pyrimidin-5-yl-1H-indol-2-yl]methanone], the IC50 amounted to 6.9 nM at human Lck enzyme, 11 nM at human Src enzyme and 1.1 nM at human Yes1 enzyme.

Regarding `Cc1cc(Oc2ccccc2F)ccc1-n1ncc(C(=O)c2cc3cc(F)c(NS(=O)(=O)C4CCOCC4)cc3[nH]2)c1N` [Example 5-1-389, N-[2-[5-amino-1-[4-(2-fluorophenoxy)-2-methylphenyl]pyrazole-4-carbonyl]-5-fluoro-1H-indol-6-yl]oxane-4-sulfonamide], the IC50 at human Lck enzyme turned out to be 18 nM; on human Src enzyme, 24 nM; on human Yes1 enzyme, 1.4 nM.

Turning to `Cc1cc(Oc2ccccc2F)ccc1-n1ncc(C(=O)c2cc3cc(F)c(N4C(=O)[C@@H]5C[C@H](NC(=O)OCC6c7ccccc7-c7ccccc76)CN5C4=O)cc3[nH]2)c1N` [Example 5-1-265, 9H-fluoren-9-ylmethyl N-[(6S,7aS)-2-[2-[5-amino-1-[4-(2-fluorophenoxy)-2-methylphenyl]pyrazole-4-carbonyl]-5-fluoro-1H-indol-6-yl]-1,3-dioxo-5,6,7,7a-tetrahydropyrrolo[1,2-c]imidazol-6-yl]carbamate], the IC50 is 38 nM on human Lck enzyme, 440 nM at human Src enzyme and 5.4 nM at human Yes1 enzyme.

As for `Cc1cc(Oc2ccccc2F)ccc1-n1ncc(C(=O)c2cc3cc(OCC(F)F)c(N4CCC(N5CCOCC5)CC4)cc3[nH]2)c1N` [Example 4-25-028, [5-amino-1-[4-(2-fluorophenoxy)-2-methylphenyl]pyrazol-4-yl]-[5-(2,2-difluoroethoxy)-6-(4-morpholin-4-ylpiperidin-1-yl)-1H-indol-2-yl]methanone], the IC50 at human Lck enzyme (setting [1]) amounted to 4.9 nM; on human Src enzyme (setting [1]) it was 13 nM; on human Yes1 enzyme (setting [1]) it was 0.94 nM.

For the compound `Cc1cc(Oc2ccccc2F)cc(F)c1-n1ncc(C(=O)c2cc3cc(OC(F)F)c(N4CCOCC4)cc3[nH]2)c1N` [Example 4-25-025, [5-amino-1-[2-fluoro-4-(2-fluorophenoxy)-6-methylphenyl]pyrazol-4-yl]-[5-(difluoromethoxy)-6-morpholin-4-yl-1H-indol-2-yl]methanone], the values for the IC50 on human Lck enzyme (setting [1]), on human Src enzyme (setting [1]) and on human Yes1 enzyme (setting [1]) were 31 nM, 80 nM and 17 nM, respectively.

Turning to `Cc1cc(Oc2c(F)cccc2F)ncc1-n1ncc(C(=O)c2cc3cc(OC4CCN(C5CS(=O)(=O)C5)CC4)c(-c4ccccc4F)cc3[nH]2)c1N` [Example 5-1-311, [5-amino-1-[6-(2,6-difluorophenoxy)-4-methylpyridin-3-yl]pyrazol-4-yl]-[5-[1-(1,1-dioxothietan-3-yl)piperidin-4-yl]oxy-6-(2-fluorophenyl)-1H-indol-2-yl]methanone], the IC50 on human Lck enzyme was 15 nM; on human Src enzyme, 48 nM; on human Yes1 enzyme, 3.6 nM.

Consider `Cc1cc(Oc2c(F)cccc2Cl)ncc1-n1ncc(C(=O)c2cc3cc(F)c(NS(=O)(=O)CCCF)cc3[nH]2)c1N` [Example 4-2-024, N-[2-[5-amino-1-[6-(2-chloro-6-fluorophenoxy)-4-methylpyridin-3-yl]pyrazole-4-carbonyl]-5-fluoro-1H-indol-6-yl]-3-fluoropropane-1-sulfonamide], for which the figures for the IC50 at human Lck enzyme (setting [1]), on human Src enzyme (setting [1]) and at human Yes1 enzyme (setting [1]) were 12 nM, 60 nM and 2.1 nM, respectively.

Regarding `Cc1cccc(S(=O)(=O)Nc2cc3[nH]c(C(=O)c4cnn(-c5cnc(Oc6c(F)cccc6F)cc5C)c4N)cc3cc2C)n1` [Example 5-1-531, N-[2-[5-amino-1-[6-(2,6-difluorophenoxy)-4-melhylpyridin-3-yl]pyrazole-4-carbonyl]-5-methyl-1H-indol-6-yl]-6-methylpyridine-2-sulfonamide], the IC50 on human Lck enzyme (setting [1]) worked out at 110 nM; at human Src enzyme (setting [1]) it was 480 nM; at human Yes1 enzyme (setting [1]) it was 4.9 nM.

As to `Cc1cc(Oc2cccc(F)c2)ccc1-n1ncc(C(=O)c2cc3cc(C4CCN(C(C)C)CC4)c(F)cc3[nH]2)c1N` [Example 5-1-005, [5-amino-1-[4-(3-fluorophenoxy)-2-methylphenyl]pyrazol-4-yl]-[6-fluoro-5-(1-propan-2-ylpiperidin-4-yl)-1H-indol-2-yl] methanone], the IC50 on human Lck enzyme was found to be 4.2 nM; at human Src enzyme, 37 nM; at human Yes1 enzyme, 0.71 nM.

For `Cc1cc2cc(C(=O)c3cnn(-c4c(C)cc(Oc5c(F)cccc5Cl)cc4F)c3N)[nH]c2cc1NS(C)(=O)=O` [Example 5-1-142, N-[2-[5-amino-1-[4-(2-chloro-6-fluorophenoxy)-2-fluoro-6-methylphenyl]pyrazole-4-carbonyl]-5-methyl-1H-indol-6-yl] methanesulfonamide], the IC50 was 52 nM at human Lck enzyme, 99 nM on human Src enzyme and 5.6 nM at human Yes1 enzyme.

Take `Cc1cc(Oc2cccc(F)c2F)ccc1-n1ncc(C(=O)c2cc3cc(NS(C)(=O)=O)c(F)cc3[nH]2)c1N` [Example 4-2-098, N-[2-[5-amino-1-[4-(2,3-difluorophenoxy)-2-methylphenyl]pyrazole-4-carbonyl]-6-fluoro-1H-indol-5-yl]methanesulfonamide]: the IC50 stood at 2.5 nM at human Lck enzyme (setting [1]), 15 nM at human Src enzyme (setting [1]) and 0.39 nM at human Yes1 enzyme (setting [1]).

For `Cc1cc2cc(C(=O)c3cnn(-c4ccc(Oc5ccccc5F)cc4C)c3N)[nH]c2cc1N1C(=O)NC2(CCN(Cc3ccccc3)CC2)C1=O` [Example 5-1-392, 3-[2-[5-amino-1-[4-(2-fluorophenoxy)-2-methylphenyl]pyrazole-4-carbonyl]-5-methyl-1H-indol-6-yl]-8-benzyl-1,3,8-triazaspiro[4.5] decane-2,4-dione], the IC50 is 14 nM at human Lck enzyme, 89 nM at human Src enzyme and 2.9 nM at human Yes1 enzyme.

Take `Cc1cc(Oc2c(F)cccc2F)ncc1-n1ncc(C(=O)c2cc3cc(OC4CCN(C(C)C)CC4)c(Cl)cc3[nH]2)c1N` [Example 5-1-205, [5-amino-1-[6-(2,6-difluorophenoxy)-4-methylpyridin-3-yl]pyrazol-4-yl]-[6-chloro-5-(1-propan-2-ylpiperidin-4-yl)oxy-1H-indol-2-yl] methanone]: the IC50 at human Lck enzyme is 7.2 nM; at human Src enzyme it was 15 nM; on human Yes1 enzyme it was 0.43 nM.

As for `Cc1cc(Oc2ccccc2F)ccc1-n1ncc(C(=O)c2cc3cc(N4CCOCC4)c(N4CCCS4(=O)=O)cc3[nH]2)c1N` [Example 4-25-006, [5-amino-1-[4-(2-fluorophenoxy)-2-methylphenyl]pyrazol-4-yl]-[6-(1,1-dioxo-1,2-thiazolidin-2-yl)-5-morpholin-4-yl-1H-indol-2-yl]methanone], the figures for the IC50 at human Lck enzyme (setting [1]), on human Src enzyme (setting [1]) and at human Yes1 enzyme (setting [1]) were 9 nM, 18 nM and 1.1 nM, respectively.

As for `Cc1cc(Oc2c(F)cccc2F)ncc1-n1ncc(C(=O)c2cc3cc(OCC(F)F)c(Br)cc3[nH]2)c1N` [Example 5-1-080, [5-amino-1-[6-(2,6-difluorophenoxy)-4-methylpyridin-3-yl]pyrazol-4-yl]-[6-bromo-5-(2,2-difluoroethoxy)-1H-indol-2-yl]methanone], the IC50 on human Lck enzyme was determined as 14 nM; at human Src enzyme, 37 nM; at human Yes1 enzyme it was 3.3 nM.

In the case of `Cc1cc(Oc2c(F)cccc2F)ncc1-n1ncc(C(=O)c2cc3cc(OC4CCN(C(C)C)CC4)c(N4CCC(N5CCOCC5)CC4)cc3[nH]2)c1N` [Example 5-1-201, [5-amino-1-[6-(2,6-difluorophenoxy)-4-methylpyridin-3-yl]pyrazol-4-yl]-[6-(4-morpholin-4-ylpiperidin-1-yl)-5-(1-propan-2-ylpiperidin-4-yl)oxy-1H-indol-2-yl]methanone], the IC50 at human Lck enzyme worked out at 3.2 nM; on human Src enzyme, 3.5 nM; on human Yes1 enzyme, 0.25 nM.

For `Cc1cc(Oc2c(F)cccc2F)ncc1-n1ncc(C(=O)c2cc3cc(F)c(N4C(=O)NC5(CCC5)C4=O)cc3[nH]2)c1N` [Example 5-1-312, 7-[2-[5-amino-1-[6-(2,6-difluorophenoxy)-4-methylpyridin-3-yl]pyrazole-4-carbonyl]-5-fluoro-1H-indol-6-yl]-5,7-diazaspiro[3.4]octane-6,8-dione], the IC50 was determined as 10 nM at human Lck enzyme, 160 nM at human Src enzyme and 3.5 nM on human Yes1 enzyme.
